What was measured:
[1] = Intestinal absorption in vitro by the everted rat gut sac model; format: in vitro ADME; conditions: n = 5
[2] = Drug stability in blank intestinal circulation fluid; format: in vitro ADME, rat; conditions: 37°C, 3 h
Procedure: The K–R culture solution was circulated in rat intestines for 3 h. PRE, SA5, SA6, and DISS were dissolved in the blank intestinal circulation fluid at concentrations of 12 mg/ml, 0.050 mg/ml, 0.086 mg/ml, and 0.198 mg/ml, respectively, and incubated at 37°C for 3 h. Aliquots of 1 ml samples were taken out at 0, 0.5, 1, 2, and 3 h after preparation for analysis.

[3] = design: method as in PMID 24043590; conditions: cited from earlier work
[4] = in PRE, high concentration (SA5 0.075, SA6 0.130, DISS 0.296 mg/ml), 180 min
[5] = in PRE, low concentration (SA5 0.025, SA6 0.043, DISS 0.099 mg/ml), 180 min
[6] = monomer, high concentration (SA5 0.075, SA6 0.130, DISS 0.296 mg/ml)
[7] = monomer, low concentration (SA5 0.025, SA6 0.043, DISS 0.099 mg/ml)

- K a [1, 4]: 0.109 ± 0.010 ^∗∗,## μg·cm^−2·min^−1
- P (%) percentage of absorption [1, 4]: 2.54 ± 0.19%
- P app [1, 4]: 0.61 ± 0.057 ×10^−5cm/s
- K a [1, 5]: 0.036 ± 0.0019 μg·cm^−2·min^−1
- P (%) percentage of absorption [1, 5]: 2.55 ± 0.03%
- P app [1, 5]: 0.61 ± 0.0033 ×10^−5cm/s
- K a [1, 6]: 0.049 ± 0.022 ^∗∗##, μg·cm^−2·min^−1
- P (%) percentage of absorption [1, 6]: 1.18 ± 0.04%
- P app [1, 6]: 0.28 ± 0.079 ×10^−5cm/min
- K a [1, 7]: 0.015 ± 0.0005 μg·cm^−2·min^−1
- P (%) percentage of absorption [1, 7]: 1.13 ± 0.05%
- P app [1, 7]: 0.26 ± 0.068 ×10^−5cm/min
- stability in the blank intestinal circulation solution (in words) [2]: stable at 37 °C for 3 h
Structure (SMILES): COc1cc(/C=C/C(=O)OC[C@H]2O[C@H](O[C@]3(CO)O[C@H](CO)[C@@H](O)[C@@H]3OC(=O)/C=C/c3cc(OC)c(O)c(OC)c3)[C@H](O)[C@@H](O)[C@@H]2O)cc(OC)c1O [DISS, 3,6′-disinapoyl sucrose]
- effect of ATP energy inhibitor sodium azide on absorption [3]: no effect
- effect of P-gp inhibitor cyclosporine A on absorption [3]: no significant effect
- effect of paracellular enhancers EDTA and sodium caprate (SC) on Papp [3]: could increase Papp
